From patent publication US7456152B2, “Peptide inhibitors of thrombin as potent anticoagulants” (priority 2004, dated 2008)
Values joined by “and” are separate entries in the source; they are usually repeats but may differ in a detail not shown here. Equal entries are not always repeated. Where two headings read alike, the source gives them in different places. Ends that are not written are not given here.

How the values were obtained:
human α-thrombin [1] = target: T1, human α-thrombin (Homo sapiens, UniProt P00734); experiment: Stability of peptides pre-incubated with thrombin, read by the clotting assay; format: biochemical; conditions: 30 hrs of incubation, 25° C.
T1 construct: Bovine and human α-thrombins were supplied by Haematologic Technologies Inc (VT, USA); cleaved off efficiently by thrombin to generate the free N-terminus of the A-chain of human thrombin; purchased Haematologic Technologies Inc (VT, USA)
Protocol: The FN22 peptide was incubated with thrombin at 25° C. in order to investigate the stability of the peptide in complex with thrombin. The progress of peptide cleavage by thrombin was monitored and analyzed through the HPLC profiles of the FN22 peptide in the absence or presence of thrombin for different incubation times. […] In the clotting assay, the FN22 peptide at a concentration of 400 nM was premixed with thrombin for different times of incubation before initiating the clotting reaction. The cleavage of the peptide by thrombin is indicated by a reduced clotting time with increasing incubation times. […]
In FIG. 18C, curve (1) represents the clotting assay curve recorded for a freshly-prepared stock solution of thrombin in the absence of peptide inhibitors, curves (2) and (3) represent the clotting curves recorded under the same condition as in (1) except that thrombin stood at 4° C. and 25° C., respectively, for 30 hrs, curves (4) and (5) represent the clotting curves recorded under the same condition as that in (3) except that the FN22 peptide (400 nM, curve 4) and FD22 (100 nM, curve 5) were mixed with thrombin during incubation, and curves (6) and (7) represent the clotting curves recorded under the same condition as that in (3) except that FN22 (400 nM, curve 6) and FD22 (100 nM, curve 7) were freshly-prepared intact peptides. […]

human α-thrombin [2] = target: T1, human α-thrombin; experiment: Peptide cleavage by thrombin followed by HPLC; format: biochemical
Protocol: Previously reported methods (DiMaio, J., Gibbs, B., Munn; D., Lefebvre, J., Ni, F., and Konishi, Y. (1990) J. Biol. Chem. 265, 21698-21703; and Witting, J. I., Bourdon, P., Brezniak, D. V., Maraganore, J. M., and Fenton, J. W. (1992) Biochem. J. 283 (Pt 3), 737-743) were employed with some modifications (as detailed in the Results section and FIG. 18) to determine whether some bivalent peptides are cleaved by thrombin. Each peptide was dissolved in the clotting buffer at a final concentration of 2.0 μM and incubated at 25° C. with or without 2 μM of human α-thrombin for up to 40 hrs. The samples were then boiled for 2 min to stop the reaction, and centrifuged. The supernatant was acidified by addition of concentrated acetic acid before being loaded on an analytical HPLC C18 column and eluted with a linear gradient of 0%-50% (v/v) acetonitrile.
The FN22 peptide was incubated with thrombin at 25° C. in order to investigate the stability of the peptide in complex with thrombin. The progress of peptide cleavage by thrombin was monitored and analyzed through the HPLC profiles of the FN22 peptide in the absence or presence of thrombin for different incubation times. […] In the clotting assay, the FN22 peptide at a concentration of 400 nM was premixed with thrombin for different times of incubation before initiating the clotting reaction. […]

human α-thrombin [3] = target: T1, human α-thrombin; experiment: Inhibition of the amidolytic activity of thrombin (Tos-Gly-Pro-Arg-p-nitroanilide hydrolysis); format: biochemical
Protocol: Kinetics of thrombin-catalyzed hydrolysis of the chromogenic substrate Tos-Gly-Pro-Arg-p-nitroanilide were followed by absorbance at 405 nm on a Spectramax plate reader thermostated at either 25° C. or 37° C. according to the method of Maragnore et al (supra). The concentrations of Tos-Gly-Pro-Arg-p-nitroanilide ranged from 2 to 400 μM. Initial rates were calculated under conditions of <15% hydrolysis of the total substrate. The KM and Vmax values were calculated accordingly and kcat values were determined by dividing Vmax by the enzyme (thrombin) concentration. The inhibition assays were performed in the clotting buffer with a certain fixed concentration of α-thrombin (˜0.3 nM) such that linear progress curves were achieved within at least 15 min in the absence of the inhibition. The total volume of the solution was fixed at 200 μl. Reactions were initiated by addition of the chromogenic substrate to the wells containing thrombin and a certain concentration of the peptide inhibitors premixed for less than 2 min. Alternatively, the substrate was first mixed with the peptide inhibitor and the total volume was adjusted to 120 μL using the clotting buffer. Eighty microliters of human α-thrombin in the clotting buffer (˜0.3 nM final concentration) was added to initiate the reaction. The concentration of the peptides ranged from 0.5 nM to 10 μM. Kinetics data from initial rate experiments were used to construct Lineweaver-Burke plot; i.e. the relationship of (substrate concentration)^−1 versus (initial velocity)^−1 which. were analysed by linear regression with MicroCal Origin 4.1 program (MicroCal, MD) or using the GraphPad Prism software. The Ki values of the inhibitors were determined using the equation: Ki=[I]/{(SL0/SL1)−1}, where
[I] is the inhibitor concentration,
SL0 is the slope of the reaction in the absence of inhibitors, and
SL1 is the slope of the reaction in the presence of the inhibitor.
Alternatively, Dixon plots of inverse velocity versus the inhibitor concentrations were generated with the Sigmaplot™ software. Every Dixon plot contained an array of data corresponding to different substrate concentrations and the Ki values were determined from the intersections. Following Peptide Cleavage by HPLC

human α-thrombin [4] = target: T1, human α-thrombin; conditions: data from the published reports of DiMaio and Maraganore; read-out: Amidolytic assay (Ki); cited from earlier work
human α-thrombin [5] = target: T1, human α-thrombin; conditions: data from the published reports of DiMaio and Maraganore; read-out: Clotting assay, 37° C. (IC50); cited from earlier work
human α-thrombin [6] = target: T1, human α-thrombin; experiment: Digestion of 15N-labelled FD22 at the Arg(P1)-Pro(P1′) bond by human α-thrombin; format: biochemical; conditions: ~1 mM 15N-labelled peptide, 5 μM human α-thrombin
Protocol: After the peptide was incubated with thrombin at 25° C. for 40 hrs, around 90% of the intact FD22 peptide still remained as shown by use of HPLC analysis (FIG. 18B). In the clotting assay, the FD22 peptide at 100 nM was premixed with thrombin for different times before initiation of clotting. The peptide thus prepared had the clotting time reduced by only 12% after 30 hrs of incubation with thrombin. Indeed, the ^15N-labelled FD22 with a concentration of ˜1 mM (FIG. 16D) was digested completely at the Arg(P1)-Pro(P1′) bond by a 5 μM concentration of human α-thrombin only after more than 60 hrs of incubation.

human α-thrombin [7] = target: T1, human α-thrombin; experiment: Clotting assay: fibrinogen clotting by human thrombin, concentration doubling the clotting time (DCT) = IC50; format: biochemical
Protocol: The clotting assays were carried out by use of the protocols described previously (DiMaio, J., Gibbs, B., Munn, D., Lefebvre, J., Ni, F., and Konishi, Y. (1990) J. Biol. Chem. 265, 21698-21703; and Witting, J. I., Bourdon, P., Brezniak, D. V., Maraganore, J. M., and Fenton, J. W. (1992) Biochem. J. 283 (Pt 3), 737-743) The assay employs bovine plasma fibrinogen dissolved at 0.1% in 50 mM Tris-Cl, 100 mM NaCl, 0.1% PEG-8000 at pH 7.6 (i.e. the clotting buffer). Each assay mixture contained a certain concentration of the peptide, and the reaction was started by the addition of human thrombin to a final concentration of 0.1 NIH unit/ml. Optical absorbance of the assay mixtures was measured at 420 nm and 37° C. using the Spectramax™ plate reader. The onset clotting time was determined as an intersection of the baseline and the initial slope of the O.D. change as a result of fibrin clot formation. The concentration of a peptide needed to double the clotting time (DCT) was defined as IC50. Peptide concentrations were determined by comparing the O.D.280 values of peptide stock solutions in the clotting buffer (vide supra) with the predicted extinction coefficient for each peptide (Gill, S. C. and von Hippel, P. H. (1989) Anal. Biochem. 182, 319-326).
The peptide concentration for doubling the clotting time (DCT) was defined as the IC50 value.

[8] = Amidolytic assay, 25° C. (Ki, nM), Tos-Gly-Pro-Arg-pNA, 25° C.

## CC[C@H](C)[C@H](NC(=O)[C@H](CCC(=O)O)NC(=O)[C@H](CCC(=O)O)NC(=O)[C@H](Cc1ccccc1)NC(=O)[C@H](CC(=O)O)NC(=O)CNC(=O)[C@H](CC(=O)O)NC(=O)[C@H](CC(N)=O)NC(=O)[C@H](Cc1c[nH]cn1)NC(=O)[C@H](CO)NC(=O)[C@H](CCC(N)=O)NC(=O)[C@@H]1CCCN1C(=O)[C@H](CCCNC(=N)N)NC(=O)[C@@H]1CCCN1C(=O)[C@H](CC(N)=O)NC(=O)[C@@H](N)Cc1ccccc1)C(=O)N1CCC[C@H]1C(=O)N[C@@H](CCC(=O)O)C(=O)N[C@@H](CCC(=O)O)C(=O)N[C@@H](Cc1ccc(O)cc1)C(=O)N[C@@H](CC(C)C)C(=O)N[C@@H](CCC(N)=O)C(=O)O [FN22]
Human α-thrombin [1]; peptide 400 nM premixed with thrombin
  reduction of clotting time compared to the control: 41%
Human α-thrombin [2]; 2.0 μM peptide, 2.0 μM human α-thrombin, 25° C., after 40 hours
  peptide cleaved by thrombin: about 30%
Human α-thrombin [3]; [8]
  Ki: 80 ± 10 nM
Human α-thrombin [3]; FN22 at 80 μM, 130 without peptide
  kcat in the presence of the peptide: 115 s⁻¹
Human α-thrombin [3]; substrate concentrations near the KM
  mode of inhibition: competitive

## dFPRPQSHNDGDFEEIPEEYL [P53^(e)]
Human α-thrombin [4]
  Ki: 2.8 ± 0.9 nM
Human α-thrombin [5]
  IC50: 4.1 ± 0.8 nM

## CC[C@H](C)[C@H](NC(=O)[C@H](CCC(=O)O)NC(=O)[C@H](CCC(=O)O)NC(=O)[C@H](Cc1ccccc1)NC(=O)[C@H](CC(=O)O)NC(=O)CNC(=O)[C@H](CC(=O)O)NC(=O)[C@H](CC(N)=O)NC(=O)[C@H](Cc1c[nH]cn1)NC(=O)[C@H](CO)NC(=O)[C@H](CCC(N)=O)NC(=O)[C@@H]1CCCN1C(=O)[C@H](CCCNC(=N)N)NC(=O)[C@@H]1CCCN1C(=O)[C@H](CC(=O)O)NC(=O)[C@@H](N)Cc1ccccc1)C(=O)N1CCC[C@H]1C(=O)N[C@@H](CCC(=O)O)C(=O)N[C@@H](CCC(=O)O)C(=O)N[C@@H](Cc1ccc(O)cc1)C(=O)N[C@@H](CC(C)C)C(=O)N[C@@H](CCC(N)=O)C(=O)O [FD22]
Human α-thrombin [1]; peptide 100 nM premixed with thrombin
  reduction of clotting time: 12%
Human α-thrombin [6]
  incubation time until complete digestion at the Arg(P1)-Pro(P1′) bond: more than 60 hrs
Human α-thrombin [2]; incubated with thrombin at 25° C. for 40 hrs
  intact peptide remaining: around 90%
Human α-thrombin [3]; [8]
  Ki: ~55 nM
Human α-thrombin [7]
  IC50: ~50 nM and 45 nM and ~45 nM

## CC[C@H](C)[C@H](NC(=O)[C@H](CCC(=O)O)NC(=O)[C@H](CCC(=O)O)NC(=O)[C@H](Cc1ccccc1)NC(=O)[C@H](CC(=O)O)NC(=O)CNC(=O)[C@H](CC(=O)O)NC(=O)[C@H](CC(N)=O)NC(=O)[C@H](Cc1c[nH]cn1)NC(=O)[C@H](CO)NC(=O)[C@H](CCC(N)=O)NC(=O)[C@@H]1CCCN1C(=O)[C@H](CCCNC(=N)N)NC(=O)[C@@H]1CCCN1C(=O)[C@H](CC(N)=O)NC(=O)[C@@H](N)Cc1ccccc1)C(=O)N1CCC[C@H]1C(=O)N[C@@H](CCC(=O)O)C(=O)N[C@@H](CCC(=O)O)C(=O)N[C@@H](Cc1ccc(O)cc1)C(=O)N[C@@H](CC(C)C)C(=O)N[C@@H](CCC(N)=O)C(=O)O [FN22^(a)]
Human α-thrombin [3]; [8]
  Ki: 100 ± 10 nM
Human α-thrombin [7]
  IC50: 150 ± 15 nM

## WDPRPQRHNDGDFEPIPEEYLQ [WD22-R-P]
Human α-thrombin [3]
  Ki: 171 ± 12 nM
Human α-thrombin [7]
  IC50: ~6.7 nM and 6.7 nM

## CC[C@H](C)[C@H](NC(=O)[C@H](CCC(=O)O)NC(=O)[C@H](CCC(=O)O)NC(=O)[C@H](Cc1ccccc1)NC(=O)[C@H](CC(=O)O)NC(=O)CNC(=O)[C@H](CC(=O)O)NC(=O)[C@H](CC(N)=O)NC(=O)[C@H](Cc1c[nH]cn1)NC(=O)[C@H](CO)NC(=O)[C@H](CCC(N)=O)NC(=O)[C@@H]1CCCN1C(=O)[C@H](CCCNC(=N)N)NC(=O)[C@@H]1CCCN1C(=O)[C@H](CC(=O)O)NC(=O)[C@@H](N)Cc1ccccc1)C(=O)N1CCC[C@H]1C(=O)N[C@@H](CCC(=O)O)C(=O)N[C@@H](CCC(=O)O)C(=O)N[C@@H](Cc1ccc(O)cc1)C(=O)N[C@@H](CC(C)C)C(=O)N[C@@H](CCC(N)=O)C(=O)O [FD22^(a)]
Human α-thrombin [3]; [8]
  Ki: 55 ± 10 nM
Human α-thrombin [7]
  IC50: 50 ± 15 nM

## CC[C@H](C)[C@H](NC(=O)[C@H](CCC(N)=O)NC(=O)[C@@H]1CCCN1C(=O)[C@H](CCCNC(=N)N)NC(=O)[C@@H]1CCCN1C(=O)[C@H](CCC(N)=O)NC(=O)[C@@H](NC(=O)[C@H](CO)NC(=O)CN)[C@@H](C)CC)C(=O)N[C@@H](Cc1c[nH]cn1)C(=O)N[C@@H](CC(N)=O)C(=O)N[C@@H](CC(=O)O)C(=O)NCC(=O)N[C@@H](CC(=O)O)C(=O)N[C@@H](Cc1ccccc1)C(=O)N[C@@H](CCC(=O)O)C(=O)N[C@@H](CCC(=O)O)C(=O)N[C@H](C(=O)N1CCC[C@H]1C(=O)N[C@@H](CCC(=O)O)C(=O)N[C@@H](CCC(=O)O)C(=O)N[C@@H](Cc1ccc(O)cc1)C(=O)N[C@@H](CC(C)C)C(=O)N[C@@H](CCC(N)=O)C(=O)O)[C@@H](C)CC [GS-IQ22-I]
Human α-thrombin [3]; [8]
  Ki: > 400 nM
Human α-thrombin [3]; up to 400 nM in concentration
  amidolytic activity of thrombin in the presence of the peptide: little affected
Human α-thrombin [7]
  IC50: 10 ± 1 nM
